# According to ChEMBL document CHEMBL3822451, “Structure-based design and synthesis of small molecular inhibitors disturbing the interaction of MLL1-WDR5” (Eur J Med Chem, 2016):
# Molecular target: T1, WD repeat-containing protein 5 (Homo sapiens, UniProt P61964)
# Experiment: Inhibition of 10mer-Thr-FAM probe binding to His-tagged human WDR5 expressed in Escherichia coli incubated for 2 hrs by fluorescence polarization assay
row,IC50,SMILES
1,> 20 µM,Cc1c(F)ccc(C(=O)Nc2ccc(-c3ccc(N)cc3)cc2N2CCN(C)CC2)c1Cl
2,> 20 µM,COc1cccc(NC(=O)c2cc([N+](=O)[O-])ccc2N2CCN(C)CC2)c1
3,0.207 µM,Cc1c(F)c([N+](=O)[O-])cc(C(=O)Nc2cc(-c3ccccc3)ccc2N2CCN(C)CC2)c1Cl
4,> 20 µM,Cc1c(F)ccc(C(=O)Nc2ccc(-c3ccc([N+](=O)[O-])cc3)cc2N2CCN(C)CC2)c1Cl
5,> 20 µM,Cc1c(F)ccc(C(=O)Nc2ccc(-c3ccncc3)cc2N2CCN(C)CC2)c1Cl
6,> 20 µM,Cc1c(F)ccc(C(=O)Nc2ccc(-c3ccc(C(=O)O)cc3)cc2N2CCN(C)CC2)c1Cl
7,0.466 µM,Cc1c(F)ccc(C(=O)Nc2cc(-c3ccccc3)ccc2N2CCN(C)CC2)c1Cl
8,> 20 µM,Cc1cc(C)c(S(=O)(=O)Nc2cc([N+](=O)[O-])ccc2N2CCN(C)CC2)c(C)c1
9,0.104 µM,Cc1c(F)ccc(C(=O)Nc2cc(-c3ccncc3)ccc2N2CCN(C)CC2)c1Cl
10,> 20 µM,CN1CCN(c2ccc([N+](=O)[O-])cc2C(=O)Nc2ccc(F)cc2F)CC1
11,> 20 µM,Cc1c(F)ccc(C(=O)Nc2cc(N)ccc2N2CCN(C)CC2)c1Cl
12,> 20 µM,CN1CCN(c2ccc([N+](=O)[O-])cc2NS(=O)(=O)c2ccc(F)cc2)CC1
13,> 20 µM,COc1ccc(S(=O)(=O)Nc2cc([N+](=O)[O-])ccc2N2CCN(C)CC2)cc1OC
14,0.206 µM,Cc1c(F)ccc(C(=O)Nc2cc(-c3ccc(N)cc3)ccc2N2CCN(C)CC2)c1Cl
15,> 20 µM,CN1CCN(c2ccc([N+](=O)[O-])cc2C(=O)Nc2ccccc2Cl)CC1
16,> 20 µM,COc1ccc(S(=O)(=O)Nc2cc([N+](=O)[O-])ccc2N2CCN(C)CC2)cc1

# Molecular target: T1, WD repeat-containing protein 5
# Experiment: Binding affinity to His-tagged human WDR5 expressed in Escherichia coli by isothermal titration calorimetry
row,Kd,SMILES
1,0.133 µM,Cc1c(F)ccc(C(=O)Nc2cc(-c3ccncc3)ccc2N2CCN(C)CC2)c1Cl
